Values quoted from earlier work in patent US20080153927A1, “ALPHA-2B RECEPTOR AGONIST AND RELAXANT COMPOSITIONS FOR TREATING GASTROINTESTINAL MOTILITY DISORDERS” (Allergan, Inc., priority 2006, published 2008).

Structure (SMILES): CN(C)[C@@H](CCOc1cccc2ccccc12)c1ccccc1 [Dapoxetine]
- initial half-life (in vivo): 1.2 h
- time to maximum serum concentration (serum): about 1 hour
